± gives the expanded uncertainty stated by the source.
Details: for vapor or sublimation pressure: Transpiration method; for mass density: 101.33 kPa, Liquid, Vibrating tube method

| Structure (SMILES) | vapor or sublimation pressure (419.15 K, Crystal) | vapor or sublimation pressure (421.15 K, Crystal) | vapor or sublimation pressure (423.15 K, Crystal) | vapor or sublimation pressure (425.15 K, Crystal) | vapor or sublimation pressure (427.15 K, Crystal) | vapor or sublimation pressure (429.15 K, Crystal) | vapor or sublimation pressure (431.15 K, Crystal) | vapor or sublimation pressure (433.15 K, Crystal) | vapor or sublimation pressure (435.15 K, Crystal) | vapor or sublimation pressure (437.15 K, Crystal) | vapor or sublimation pressure (439.15 K, Crystal) | vapor or sublimation pressure (441.15 K, Crystal) | vapor or sublimation pressure (443.15 K, Crystal) | Normal melting temperature (Crystal, DTA) | mass density (293.15 K) | mass density (298.15 K) | mass density (303.15 K) | mass density (308.15 K) | mass density (313.15 K) |
| --- | --- | --- | --- | --- | --- | --- | --- | --- | --- | --- | --- | --- | --- | --- | --- | --- | --- | --- | --- |
| Cc1c(Cl)cccc1Nc1ncccc1C(=O)O [2-(2-methyl-3-chloroanilino)nicotinic acid] | 0.000753 ± 0.00012 kPa | 0.000867 ± 0.00013 kPa | 0.000966 ± 0.00013 kPa | 0.001118 ± 0.00013 kPa | 0.001294 ± 0.00013 kPa | 0.001475 ± 0.00013 kPa | 0.001694 ± 0.00014 kPa | 0.001933 ± 0.00014 kPa | 0.002207 ± 0.00015 kPa | 0.002483 ± 0.00016 kPa | 0.002882 ± 0.00017 kPa | 0.003179 ± 0.00018 kPa | 0.003735 ± 0.0002 kPa | 232.60 ± 0.5 °C | – | – | – | – | – |
| CCCCCC [hexane] | – | – | – | – | – | – | – | – | – | – | – | – | – | – | 659.4 ± 4.1 kg/m3 | 654.8 ± 4.1 kg/m3 | 650.2 ± 4.1 kg/m3 | 645.4 ± 4.1 kg/m3 | 640.7 ± 4.1 kg/m3 |
| CCCCCCCCO [octan-1-ol] | – | – | – | – | – | – | – | – | – | – | – | – | – | – | 825.1 ± 4 kg/m3 | 821.7 ± 4 kg/m3 | 818.3 ± 4 kg/m3 | 814.8 ± 4 kg/m3 | 811.4 ± 4 kg/m3 |
